33 compounds from US9181255B2, “Fused heteroaromatic pyrrolidinones as SYK inhibitors” (Takeda Pharmaceutical Company Limited, priority 2009, dated 2015) can be followed below.

For the first assay, the target named is SYK (Homo sapiens, UniProt P43405). In words: SYK inhibition assay: SYK-mediated phosphorylation of FAM-labeled substrate (Caliper microfluidic). The format is biochemical. Particulars: SYK kinase domain (residues 356-635); 5FAM-KKKKEEIYFFFG-NH2 substrate; ATP; RT 60 min; pIC50 = -log(IC50), IC50 molar.
For the compound `N[C@H]1COCC[C@H]1Nc1nc(-c2cnn(C(F)F)c2)c2c(c1F)CNC2=O` [Example 93, 6-((3R,4R)-3-Aminotetrahydro-2H-pyran-4-ylamino)-4-(1-(difluoromethyl)-1H-pyrazol-4-yl)-7-fluoro-1H-pyrrolo[3,4-c]pyridin-3(2H)-one], the “SYK Inhibition (pIC50)” value was found to be 8.0.

Staying with this assay, now noted: read-out: SYK Inhibition (pIC50) (converted).
With `N[C@H]1CCCC[C@H]1Nc1nc(-c2cccs2)c2c(c1F)CNC2=O` [Example 129, 6-((1R,2S)-2-Aminocyclohexylamino)-7-fluoro-4-(thiophen-2-yl)-1H-pyrrolo[3,4-c]pyridin-3(2H)-one], the IC50 is 3.98 nM.

Take `COC[C@H](N)CNc1nc(Nc2cccc(C)c2)c2c(c1C#N)CNC2=O` [Example 78, (R)-6-(2-Amino-3-methoxypropylamino)-3-oxo-4-(m-tolylamino)-2,3-dihydro-1H-pyrrolo[3,4-c]pyridine-7-carbonitrile]: the IC50 was 3.98 nM.

For the compound `N[C@H]1COCC[C@H]1Nc1nc(-c2ccsc2)c2c(c1F)CNC2=O` [Example 103, 6-((3R,4R)-3-Aminotetrahydro-2H-pyran-4-ylamino)-7-fluoro-4-(thiophen-3-yl)-1H-pyrrolo[3,4-c]pyridin-3(2H)-one], the IC50 was 126 nM.

Take `Cn1cc(-c2nc(N3CC[C@H](N)C3)c(F)c3c2C(=O)NC3)cn1` [Example 95, (S)-6-(3-Aminopyrrolidin-1-yl)-7-fluoro-4-(1-methyl-1H-pyrazol-4-yl)-1H-pyrrolo[3,4-c]pyridin-3(2H)-one]: the IC50 is 3980 nM.

`Cc1cccc(Nc2nc(N[C@@H]3CCCC[C@@H]3N(C)C)nc3c2C(=O)NC3)c1` [Example 37, 2-((1R,2S)-2-(Dimethylamino)cyclohexylamino)-4-(m-tolylamino)-6,7-dihydro-5H-pyrrolo[3,4-d]pyrimidin-5-one]: the IC50 was 1000 nM.

With `CC(C)n1cc(-c2nc(N[C@@H]3CCCC[C@@H]3N)c(F)c3c2C(=O)NC3)cn1` [Example 97, 6-((1R,2S)-2-Aminocyclohexylamino)-7-fluoro-4-(1-isopropyl-1H-pyrazol-4-yl)-1H-pyrrolo[3,4-c]pyridin-3(2H)-one], the IC50 was 158 nM.

For the compound `N[C@H]1CCCC[C@H]1Nc1nc2c(c(-c3cnn(-c4ccc(F)cc4)c3)n1)C(=O)NC2` [Example 100, 2-((1R,2S)-2-Aminocyclohexylamino)-4-(1-(4-fluorophenyl)-1H-pyrazol-4-yl)-6,7-dihydro-5H-pyrrolo[3,4-d]pyrimidin-5-one], the IC50 is 158 nM.

For the compound `Cn1cc(-c2nc(N[C@@H]3CCCC[C@@H]3N)nc3c2C(=O)NC3)cn1` [Example 14, 2-((1R,2S)-2-Aminocyclohexylamino)-4-(1-methyl-1H-pyrazol-4-yl)-6,7-dihydro-5H-pyrrolo[3,4-d]pyrimidin-5-one], the IC50 is 126 nM.

`CC(C)C[C@@H](Nc1cc2c(c(-c3cnn(C)c3)n1)C(=O)NC2)C(N)=O` [Example 36, (R)-4-Methyl-2-(4-(1-methyl-1H-pyrazol-4-yl)-3-oxo-2,3-dihydro-1H-pyrrolo[3,4-c]pyridin-6-ylamino)pentanamide]: the IC50 is 25.1 nM.

Take `N[C@H]1CCCC[C@H]1Nc1nc(-c2cnc3ccccn23)c2c(c1F)CNC2=O` [Example 51, 6-((1R,2S)-2-aminocyclohexylamino)-7-fluoro-4-(imidazo[1,2-a]pyridin-3-yl)-1H-pyrrolo[3,4-c]pyridin-3(2H)-one]: the IC50 is 63.1 nM.

On to `Cc1cc(Nc2nc(N[C@@H]3CCCC[C@@H]3N)cc3c2C(=O)NC3)ccc1F` [Example 24, 6-((1R,2S)-2-Aminocyclohexylamino)-4-(4-fluoro-3-methylphenylamino)-1H-pyrrolo[3,4-c]pyridin-3(2H)-one], for which the IC50 was 25.1 nM.

Consider `Cc1cccc(Nc2nc(N3CCCCC3CN)nc3c2C(=O)NC3)c1` (stereo not drawn) [Example 32, 2-(2-(Aminomethyl)piperidin-1-yl)-4-(m-tolylamino)-6,7-dihydro-5H-pyrrolo[3,4-c]pyrimidin-5-one], for which the IC50 is 3980 nM.

`N[C@H]1COCC[C@H]1Nc1nc(-c2cnn3ccccc23)c2c(c1F)CNC2=O` [Example 92, 6-((3R,4R)-3-Aminotetrahydro-2H-pyran-4-ylamino)-7-fluoro-4-(pyrazolo[1,5-a]pyridin-3-yl)-1H-pyrrolo[3,4-c]pyridin-3(2H)-one]: the IC50 is 12.6 nM.

In the case of `N[C@H]1COCC[C@H]1Nc1nc(-c2cnn(C(F)F)c2)c2c(c1F)CNC2=O` [Example 125, 6-((3R,4R)-3-Aminotetrahydro-2H-pyran-4-ylamino)-4-(1-(difluoromethyl)-1H-pyrazol-4-yl)-7-fluoro-1H-pyrrolo[3,4-c]pyridin-3(2H)-one], the IC50 was 10 nM.

`Cc1ncc(-c2nc(N[C@@H]3CCOC[C@@H]3N)c(F)c3c2C(=O)NC3)s1` [Example 133, 6-((3R,4R)-3-Aminotetrahydro-2H-pyran-4-ylamino)-7-fluoro-4-(2-methylthiazol-5-yl)-1H-pyrrolo[3,4-c]pyridin-3(2H)-one]: the IC50 was 25.1 nM.

`N[C@H]1CCCC[C@H]1Nc1nc2c(c(-c3cc4ccccc4[nH]3)n1)C(=O)NC2` [Example 47, 2-((1R,2S)-2-Aminocyclohexylamino)-4-(1H-indol-2-yl)-6,7-dihydro-5H-pyrrolo[3,4-c]pyrimidin-5-one]: the IC50 is 2.51 nM.

Turning to `Cc1cccc(Nc2nc(N[C@H]3COCC[C@H]3N)cc3c2C(=O)NC3)c1` [Example 86, 6-((3R,4R)-4-Aminotetrahydro-2H-pyran-3-ylamino)-4-(m-tolylamino)-1H-pyrrolo[3,4-c]pyridin-3(2H)-one], the IC50 was 2510 nM.

For `Cc1cccc(Nc2nc(N3CCCC(N)C3)nc3c2C(=O)NC3)c1` (stereo not drawn) [Example 12, 2-(3-Aminopiperidin-1-yl)-4-(m-tolylamino)-6,7-dihydro-5H-pyrrolo[3,4-d]pyrimidin-5-one], the IC50 was 2000 nM.

As to `N[C@H]1CCCC[C@H]1Nc1nc(-c2ccsc2)c2c(c1F)CNC2=O` [Example 106, 6-((1R,2S)-2-Aminocyclohexylamino)-7-fluoro-4-(thiophen-3-yl)-1H-pyrrolo[3,4-c]pyridin-3(2H)-one], the IC50 is 2.51 nM.

`Cc1csc(-c2nc(N[C@@H]3CCCC[C@@H]3N)c(F)c3c2C(=O)NC3)c1` [Example 105, 6-((1R,2S)-2-Aminocyclohexylamino)-7-fluoro-4-(4-methylthiophen-2-yl)-1H-pyrrolo[3,4-c]pyridin-3(2H)-one]: the IC50 is 1 nM.

`CNC(=O)[C@@H](CC(C)C)Nc1nc(-c2cnn(C)c2)c2c(c1F)CNC2=O` [Example 107, (R)-2-(7-Fluoro-4-(1-methyl-1H-pyrazol-4-yl)-3-oxo-2,3-dihydro-1H-pyrrolo[3,4-c]pyridin-6-ylamino)-N,4-dimethylpentanamide]: the IC50 was 501 nM.

Turning to `N[C@H]1CCCC[C@H]1Nc1nc2c(c(-c3ccn[nH]3)n1)C(=O)NC2` [Example 48, 2-((1R,2S)-2-Aminocyclohexylamino)-4-(1H-pyrazol-5-yl)-6,7-dihydro-5H-pyrrolo[3,4-c]pyrimidin-5-one], the IC50 was 794 nM.

In the case of `Cc1cccc(Nc2nc(N[C@H](CC(C)C)C(N)=O)cc3c2C(=O)NC3)c1` [Example 57, (R)-4-Methyl-2-(3-oxo-4-(m-tolylamino)-2,3-dihydro-1H-pyrrolo[3,4-c]pyridin-6-ylamino)pentanamide], the IC50 is 15.8 nM.

In the case of `Cc1cccc(Nc2nc(NCC3CCCN3)nc3c2C(=O)NC3)c1` (stereo not drawn) [Example 44, 2-(Pyrrolidin-2-ylmethylamino)-4-(m-tolylamino)-6,7-dihydro-5H-pyrrolo[3,4-d]pyrimidin-5-one], the IC50 is 631 nM.

As to `CC(C)C[C@@H](Nc1nc(-c2cccs2)c2c(c1F)CNC2=O)C(N)=O` [Example 126, (R)-2-(7-Fluoro-3-oxo-4-(thiophen-2-yl)-2,3-dihydro-1H-pyrrolo[3,4-c]pyridin-6-ylamino)-4-methylpentanamide], the IC50 was 7.94 nM.

Regarding `CS(=O)(=O)c1cccc(Nc2nc(N[C@@H]3CCCC[C@@H]3N)cc3c2C(=O)NC3)c1` [Example 33, 6-((1R,2S)-2-Aminocyclohexylamino)-4-(3-(methylsulfonyl)phenylamino)-1H-pyrrolo[3,4-c]pyridin-3(2H)-one], the IC50 is 50.1 nM.

Take `COCCn1cc(-c2nc(N[C@@H]3CCCC[C@@H]3N)nc3c2C(=O)NC3)cn1` [Example 22, 2-((1R,2S)-2-Aminocyclohexylamino)-4-(1-(2-methoxyethyl)-1H-pyrazol-4-yl)-6,7-dihydro-5H-pyrrolo[3,4-d]pyrimidin-5-one]: the IC50 is 2000 nM.

`Cc1cccc(Nc2nc(CCCN)nc3c2C(=O)NC3)c1` [Example 49, 2-(3-Aminopropyl)-4-(m-tolylamino)-6,7-dihydro-5H-pyrrolo[3,4-d]pyrimidin-5-one]: the IC50 was greater than 20000 nM.

With `CC(C)C[C@@H](Nc1nc(-c2cnn(C(F)F)c2)c2c(c1F)CNC2=O)C(N)=O` [Example 71, (R)-2-(4-(1-(Difluoromethyl)-1H-pyrazol-4-yl)-7-fluoro-3-oxo-2,3-dihydro-1H-pyrrolo[3,4-c]pyridin-6-ylamino)-4-methylpentanamide], the IC50 was 7.94 nM.

As to `Cc1cccc(Nc2nc(N[C@@H]3CCOC[C@@H]3N)c(F)c3c2C(=O)NC3)c1` [Example 89, 6-((3R,4R)-3-Aminotetrahydro-2H-pyran-4-ylamino)-7-fluoro-4-(m-tolylamino)-1H-pyrrolo[3,4-c]pyridin-3(2H)-one], the IC50 is 3.98 nM.

With `Cc1cccc(Nc2nc(N[C@@H]3CCCC[C@@H]3N)nc3c2C(=O)NC32CC2)c1` [Example 39, 2′-((1R,2S)-2-Aminocyclohexylamino)-4′-(m-tolylamino)spiro[cyclopropane-1,7′-pyrrolo[3,4-d]pyrimidin]-5′(6′H)-one], the IC50 is 3160 nM.

Regarding `Cn1cc(-c2nc(N[C@@H]3CCCC[C@@H]3N)c(F)c3c2C(=O)NC3(C)C)cn1` [Example 120, 6-((1R,2S)-2-Aminocyclohexylamino)-7-fluoro-1,1-dimethyl-4-(1-methyl-1H-pyrazol-4-yl)-1H-pyrrolo[3,4-c]pyridin-3(2H)-one], the IC50 is 251 nM.
